Assay results as given in patent publication US9604933B2, “Pyrazolochalcones as potential anticancer agents” (COUNCIL OF SCIENTIFIC AND INDUSTRIAL RESEARCH, priority 2013, dated 2017).

How the values were obtained:
[1] = test system: OVCAR-3; assay: NCI SRB cytotoxicity, ovarian OVCAR-3; format: cell-based; conditions: Homo sapiens, 48 h exposure
Procedure: (§1) The pyrazolochalcones (7e, 8e, 10e, 11e, 12e, 13e and 8f) have been tested against fifty nine human tumor cell lines derived from nine cancer types (leukemia, non-small cell lung cancer, colon cancer, CNS cancer, melanoma, ovarian cancer, renal cancer, prostate cancer and breast cancer) as per the NCI protocol. For each compound, dose response curves for individual cell lines have been measured at a minimum of five concentrations at 10 fold dilutions. A protocol of 48 h continuous drug exposure has been used, and a sulforhodamine B (SRB) protein assay has been used to estimate cell viability or growth. The concentration for 50% cell growth inhibition (GI50), 50% cell death (LC50, 50% growth) and total cell growth inhibition (TGI, 0% growth) values were tabulated (Table-1). DMSO was used as control to calculate the values of GI50, LC50 and TGI. The compounds 7e, 8e, 10e, 11e, 12e, 13e and 8f has been evaluated for their in vitro cytotoxicity in […] cell lines from nine human cancer types of leukemia (K-562, SR), non-small cell lung (Hop-62, NCI-H226, NCI-H522), colon (HCT-116, HCT-15, HCC-2998), CNS (SF-539), melanoma (SK-MEL-5, UACC-62, M14), ovarian (IGROV1), renal (A498), prostate (PC3) and breast (BT-549, MDA-MB-435, HS578T) origin. The results are expressed as percent of cell growth determined relative to that of untreated control cells (Table 2).

[2] = test system: MALME-3M; assay: NCI SRB cytotoxicity, melanoma MALME-3M; format: cell-based; conditions: Homo sapiens, 48 h exposure
Procedure: as §1

[3] = test system: M14; assay: NCI SRB cytotoxicity, melanoma M14; format: cell-based; conditions: Homo sapiens, 48 h exposure
Procedure: as §1

[4] = test system: MOLT-4; assay: NCI SRB cytotoxicity, leukemia MOLT-4; format: cell-based; conditions: Homo sapiens, 48 h exposure
Procedure: as §1

[5] = test system: K-562; assay: NCI SRB cytotoxicity, leukemia K-562; format: cell-based; conditions: Homo sapiens, K562, 48 h exposure
Procedure: as §1

[6] = test system: T-47D; assay: NCI SRB cytotoxicity, breast T-47D; format: cell-based; conditions: Homo sapiens, T47D, 48 h exposure
Procedure: as §1

[7] = test system: PC-3; assay: NCI SRB cytotoxicity, prostate PC-3; format: cell-based; conditions: Homo sapiens, 48 h exposure
Procedure: as §1

[8] = test system: HL-60(TB); assay: NCI SRB cytotoxicity, leukemia HL-60(TB); format: cell-based; conditions: Homo sapiens, 48 h exposure
Procedure: as §1

[9] = test system: NCI/ADR-RES; assay: NCI SRB cytotoxicity, ovarian NCI/ADR-RES; format: cell-based; conditions: Homo sapiens, 48 h exposure
Procedure: as §1

[10] = test system: BT-549; assay: NCI SRB cytotoxicity, breast BT-549; format: cell-based; conditions: Homo sapiens, 48 h exposure
Procedure: as §1

[11] = test system: Melanoma; assay: NCI SRB cytotoxicity, melanoma panel average; format: cell-based, human; conditions: average of cell lines; for GI50 / LC50: Homo sapiens; for GI50: read-out: Log10 GI50 (concentration in mol/L causing 50% growth inhibition) (converted); for LC50: read-out: Log10 LC50 (concentration in mol/L causing 50% cell death) (converted)
Procedure: as §1
(§2) Each cancer type represents the average of six to eight different cancer cell lines.

[12] = test system: SNB-19; assay: NCI SRB cytotoxicity, CNS SNB-19; format: cell-based; conditions: Homo sapiens, 48 h exposure
Procedure: as §1

[13] = test system: HT29; assay: NCI SRB cytotoxicity, colon HT29; format: cell-based; conditions: Homo sapiens, HT-29, 48 h exposure
Procedure: as §1

[14] = test system: Renal; assay: NCI SRB cytotoxicity, renal panel average; format: cell-based, human; conditions: average of cell lines; for GI50 / CC50: Homo sapiens; for GI50: read-out: Log10 GI50 (concentration in mol/L causing 50% growth inhibition) (converted); for CC50: read-out: Log10 LC50 (concentration in mol/L causing 50% cell death) (converted)
Procedure: as §1, §2

[15] = test system: COLO-205; assay: NCI SRB cytotoxicity, colon COLO-205; format: cell-based; conditions: Homo sapiens, 48 h exposure
Procedure: as §1

[16] = test system: Colon; assay: NCI SRB cytotoxicity, colon panel average; format: cell-based, human; conditions: average of cell lines; for GI50 / LC50: Homo sapiens; for GI50: read-out: Log10 GI50 (concentration in mol/L causing 50% growth inhibition) (converted); for LC50: read-out: Log10 LC50 (concentration in mol/L causing 50% cell death) (converted)
Procedure: as §1, §2

[17] = test system: SF-539; assay: NCI SRB cytotoxicity, CNS SF-539; format: cell-based; conditions: Homo sapiens, 48 h exposure
Procedure: as §1

[18] = test system: SR; assay: NCI SRB cytotoxicity, leukemia SR; format: cell-based; conditions: Homo sapiens, 48 h exposure
Procedure: as §1

[19] = test system: SN12C; assay: NCI SRB cytotoxicity, renal SN12C; format: cell-based; conditions: Homo sapiens, 48 h exposure
Procedure: as §1

[20] = test system: MDA-MB-231/ATCC; assay: NCI SRB cytotoxicity, breast MDA-MB-231/ATCC; format: cell-based; conditions: Homo sapiens, 48 h exposure
Procedure: as §1

[21] = test system: MCF7; assay: NCI SRB cytotoxicity, breast MCF7; format: cell-based; conditions: Homo sapiens, 48 h exposure
Procedure: as §1

[22] = test system: OVCAR-8; assay: NCI SRB cytotoxicity, ovarian OVCAR-8; format: cell-based; conditions: Homo sapiens, 48 h exposure
Procedure: as §1

[23] = test system: HCC-2998; assay: NCI SRB cytotoxicity, colon HCC-2998; format: cell-based; conditions: Homo sapiens, 48 h exposure
Procedure: as §1

[24] = test system: SK-MEL-2; assay: NCI SRB cytotoxicity, melanoma SK-MEL-2; format: cell-based; conditions: Homo sapiens, 48 h exposure
Procedure: as §1

[25] = test system: UACC-62; assay: NCI SRB cytotoxicity, melanoma UACC-62; format: cell-based; conditions: Homo sapiens, 48 h exposure
Procedure: as §1

[26] = test system: HOP92; assay: NCI SRB cytotoxicity, non-small cell lung HOP92; format: cell-based; conditions: Homo sapiens, HOP-92, 48 h exposure
Procedure: as §1

[27] = test system: CNS; assay: NCI SRB cytotoxicity, CNS panel average; format: cell-based, human; conditions: average of cell lines; for GI50 / LC50: Homo sapiens; for GI50: read-out: Log10 GI50 (concentration in mol/L causing 50% growth inhibition) (converted); for LC50: read-out: Log10 LC50 (concentration in mol/L causing 50% cell death) (converted)
Procedure: as §1, §2

[28] = test system: HCT-15; assay: NCI SRB cytotoxicity, colon HCT-15; format: cell-based; conditions: Homo sapiens, 48 h exposure
Procedure: as §1

[29] = test system: NCI-H226; assay: NCI SRB cytotoxicity, non-small cell lung NCI-H226; format: cell-based; conditions: Homo sapiens, 48 h exposure
Procedure: as §1

[30] = test system: ACHN; assay: NCI SRB cytotoxicity, renal ACHN; format: cell-based; conditions: Homo sapiens, 48 h exposure
Procedure: as §1

[31] = test system: SK-OV-3; assay: NCI SRB cytotoxicity, ovarian SK-OV-3; format: cell-based; conditions: Homo sapiens, 48 h exposure
Procedure: as §1

COc1cc(C(=O)/C=C/c2cc(-c3cc(OC)c(OC)c(OC)c3)n[nH]2)cc(OC)c1OC [10e, (E)-1-(3,4,5-trimethoxyphenyl)-3-(3-(3,4,5-trimethoxyphenyl)-1H-pyrazol-5-yl)prop-2-en-1-one]
GI50 [1]: 1.75 µM
GI50 [2]: 1.86 µM
GI50 [3]: 1.79 µM
GI50 [4]: 2.32 µM
GI50 [5]: 2.96 µM
GI50 [6]: 1.13 µM
GI50 [7]: 1.47 µM
GI50 [8]: 1.93 µM
GI50 [9]: 3.47 µM
GI50 [10]: 1.57 µM
GI50 [11]: 1.7 µM
LC50 [11]: 6.46 µM
Log10 TGI (concentration in mol/L causing total growth inhibition) [11]: −5.47 mol/L
GI50 [12]: 1.66 µM
GI50 [13]: 1.79 µM
GI50 [14]: 1.58 µM
CC50 [14]: 7.59 µM
Log10 TGI (concentration in mol/L causing total growth inhibition (0% growth)) [14]: −5.45 mol/L
GI50 [15]: 1.75 µM
GI50 [16]: 1.62 µM
LC50 [16]: 6.03 µM
Log10 TGI (concentration in mol/L causing total growth inhibition) [16]: −5.50 mol/L
GI50 [17]: 1.29 µM
GI50 [18]: 0.39 µM
GI50 [19]: 1.47 µM
GI50 [20]: 1.52 µM
GI50 [21]: 0.64 µM
GI50 [22]: 1.58 µM
GI50 [23]: 1.83 µM
GI50 [24]: 1.96 µM
GI50 [25]: 1.78 µM
GI50 [26]: 0.86 µM
GI50 [27]: 1.62 µM
LC50 [27]: 7.94 µM
Log10 TGI (concentration in mol/L causing total growth inhibition (0% growth)) [27]: −5.46 mol/L
GI50 [28]: 1.5 µM
GI50 [29]: 1.6 µM
GI50 [30]: 1.62 µM
GI50 [31]: 3.2 µM

COc1cc(-c2cc(/C=C/C(=O)c3ccc(Cl)c(Cl)c3)[nH]n2)cc(OC)c1OC [12e, (E)-1-(3,4-dichlorophenyl)-3-(3-(3,4,5-trimethoxyphenyl)-1H-pyrazol-5-yl)prop-2-en-1-one]
GI50 [1]: 6.99 µM
GI50 [2]: 29.2 µM
GI50 [3]: 18.2 µM
GI50 [4]: 4.38 µM
GI50 [5]: 4.96 µM
GI50 [6]: 1.66 µM
GI50 [7]: 5.95 µM
GI50 [8]: 7.18 µM
GI50 [9]: 10.6 µM
GI50 [10]: 8.4 µM
GI50 [11]: 13.2 µM
LC50 [11]: 95.5 µM
Log10 TGI (concentration in mol/L causing total growth inhibition) [11]: −4.21 mol/L
GI50 [12]: 9.83 µM
GI50 [13]: 1.15 µM
GI50 [14]: 8.91 µM
CC50 [14]: 93.3 µM
Log10 TGI (concentration in mol/L causing total growth inhibition (0% growth)) [14]: −4.22 mol/L
GI50 [15]: 1.26 µM
GI50 [16]: 4.79 µM
LC50 [16]: 100 µM
Log10 TGI (concentration in mol/L causing total growth inhibition) [16]: −4.34 mol/L
GI50 [17]: 4.31 µM
GI50 [18]: 0.39 µM
GI50 [19]: 13.7 µM
GI50 [20]: 8.65 µM
GI50 [21]: 1.8 µM
GI50 [22]: 6.3 µM
GI50 [23]: 9.56 µM
GI50 [24]: 13.9 µM
GI50 [25]: 18.8 µM
GI50 [26]: 2.53 µM
GI50 [27]: 8.51 µM
LC50 [27]: 87.1 µM
Log10 TGI (concentration in mol/L causing total growth inhibition (0% growth)) [27]: −4.25 mol/L
GI50 [28]: 4.29 µM
GI50 [29]: 18.6 µM
GI50 [30]: 21.4 µM
GI50 [31]: 4.19 µM

COc1cc(-c2cc(/C=C/C(=O)c3ccc(F)c(F)c3)[nH]n2)cc(OC)c1OC [13e, (E)-1-(3,4-difluorophenyl)-3-(3-(3,4,5-trimethoxyphenyl)-1H-pyrazol-5-yl)prop-2-en-1-one]
GI50 [1]: 2.39 µM
GI50 [2]: 2.96 µM
GI50 [3]: 2.7 µM
GI50 [4]: 2.72 µM
GI50 [5]: 3.31 µM
GI50 [6]: 2.45 µM
GI50 [7]: 1.66 µM
GI50 [8]: 2.48 µM
GI50 [9]: 3.46 µM
GI50 [10]: 4.11 µM
LC50 [11]: 64.6 µM
Log10 GI50 (concentration in mol/L causing 50% growth inhibition) [11]: −5.56 mol/L
Log10 TGI (concentration in mol/L causing total growth inhibition) [11]: −5.00 mol/L
GI50 [12]: 3.64 µM
GI50 [13]: 2.62 µM
CC50 [14]: 93.3 µM
Log10 GI50 (concentration in mol/L causing 50% growth inhibition) [14]: −5.56 mol/L
Log10 TGI (concentration in mol/L causing total growth inhibition (0% growth)) [14]: −4.71 mol/L
GI50 [15]: 1.69 µM
LC50 [16]: 58.9 µM
Log10 GI50 (concentration in mol/L causing 50% growth inhibition) [16]: −5.52 mol/L
Log10 TGI (concentration in mol/L causing total growth inhibition) [16]: −4.70 mol/L
GI50 [17]: 3.76 µM
GI50 [18]: 2.92 µM
GI50 [19]: 3.37 µM
GI50 [20]: 1.64 µM
GI50 [21]: 3.2 µM
GI50 [22]: 2.88 µM
GI50 [23]: 3.69 µM
GI50 [24]: 2.3 µM
GI50 [25]: 2.38 µM
LC50 [27]: 91.2 µM
Log10 GI50 (concentration in mol/L causing 50% growth inhibition) [27]: −5.47 mol/L
Log10 TGI (concentration in mol/L causing total growth inhibition (0% growth)) [27]: −4.38 mol/L
GI50 [28]: 3.01 µM
GI50 [29]: 3.72 µM
GI50 [30]: 3.26 µM
GI50 [31]: 3.53 µM
